Earlier results as cited in US20180273780A1, “WATER-BASED INK COMPOSITION FOR INK JET RECORDING AND COLORING MATERIAL LIQUID” (Seiko Epson Corporation, priority 2017, published 2018).

Compound | water-octanol partition coefficient (log P)
CCCCOCCC(=O)N(C)C [3-butoxy-N,N-dimethylpropanamide] | 0.86
CCCN1CCCC1=O [1-propyl-2-pyrrolidone] | 0.67

Now from value to compound:

water-octanol partition coefficient (log P) | Compound
2.4 | CCCCC(CC)COCCOCCO (stereo not drawn) [diethylene glycol-2-ethylhexyl ether]
0.97 | tritrimethylolpropane
0.56 | CCCCOCCOCCO [butyl diglycol]
1.36 | CCCCCCOCC(O)CO (stereo not drawn) [3-(hexyloxy)-1,2-propanediol]
